These molecules were tested on HCV 1b_Huh-Luc/Neo-ET cell line persistently expressing a bicistronic genotype 1b replicon in Huh 7 cells (assay: HCV replicon assay (luciferase readout)). Details: Hepatitis C virus, Huh-7, 72 h, read-out: Inhibition of HCV genotype 1b.
Type: cell-based
Outline: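 EC50, determined repeatedly, comes from a four-parameter logistic fit of luciferase signal as percent of untreated control. Readout follows 72 h compound exposure, in triplicate, of the HCV 1b_Huh-Luc/Neo-ET replicon line.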
For COC(=O)N[C@@H](C(=O)N1CCC[C@H]1c1ncc(-c2ccc(C#Cc3ccc(C(=O)NC[C@@H]4CCCN4C(=O)[C@H](NC(=O)N4CCN(C)CC4)c4ccccc4)cc3)cc2)[nH]1)c1ccccc1 [Compound 236], the EC50 was < 1 nM. O=C(N[C@@H](C(=O)N1CCC[C@H]1c1ncc(C#Cc2ccc(-c3cnc([C@@H]4CCCN4C(=O)[C@H](NC(=O)C4CC4)c4ccccc4)[nH]3)cc2)[nH]1)c1ccccc1)C1CC1 [Compound 100] was tested, and the EC50 was < 1 nM. With COC(=O)N[C@@H](C(=O)N1CCC[C@H]1c1ncc(-c2ccc(C#Cc3ccc(-c4cnc([C@@H]5CCCN5C(=O)OCc5ccccc5)[nH]4)cc3)cc2)[nH]1)c1ccccc1 [Compound 200] the EC50 was < 1 nM. In the case of COC(=O)N[C@@H](C(=O)N[C@@H](C)c1ncc(-c2ccc(C#Cc3ccc(-c4cnc([C@@H]5CCCN5C(=O)[C@H](NC(=O)OC)c5ccccc5)[nH]4)cc3)cc2)[nH]1)c1ccccc1 [Compound 279], the EC50 is reported as < 1 nM. In the case of COC(=O)N[C@H](C(=O)N1CCCC[C@H]1c1ncc(-c2ccc(C#Cc3ccc4nc([C@@H]5CCCN5C(=O)[C@@H](NC(=O)OC)C(C)C)[nH]c4c3)cc2)[nH]1)C(C)C [Compound 1032], the EC50 is reported as < 1 nM. For COC(=O)N[C@H](C(=O)N1CCC[C@H]1c1ncc(-c2ccc(C#Cc3ccc4nc([C@@H]5CCCN5C(=O)[C@@H](C(C)C)N(C)C)[nH]c4c3)cc2)[nH]1)C(C)C [Compound 1020], the EC50 was < 1 nM. For CN1CCN(C(=O)N[C@@H](C(=O)N2CCC[C@H]2c2ncc(-c3ccc(C#Cc4ccc(-c5cnc([C@@H]6CCCN6C(=O)[C@H](NC(=O)N6CCN(C)CC6)c6ccccc6)[nH]5)cc4)cc3)[nH]2)c2ccccc2)CC1 [Compound 159], the EC50 was < 1 nM. For C[C@@H](c1ncc(-c2ccc(C#Cc3ccc(-c4cnc([C@@H]5CCCN5C(=O)[C@H](NC(=O)C5CC5)c5ccccc5)[nH]4)cc3)cc2)[nH]1)N(C)C(=O)[C@H](NC(=O)C1CC1)c1ccccc1 [Compound 278], the EC50 was < 1 nM. With COC(=O)N[C@H](C(=O)N1CCC[C@H]1c1ncc(-c2ccc(C#Cc3ccc(-c4cnc([C@@H]5CCCN5C(=O)[C@@H](Nc5cccnc5)C(C)C)[nH]4)cc3)cc2)[nH]1)C(C)C [Compound 995] the EC50 was < 1 nM. For COC(=O)N[C@H](C(=O)N1CCC[C@H]1c1ncc(-c2ccc(C#Cc3ccc(-c4cnc([C@@H]5CCCN5C(=O)[C@@H](c5ccccc5)N5CCCCC5)[nH]4)cc3)cc2)[nH]1)C(C)C [Compound 986], the EC50 was < 1 nM. In the case of COC(=O)N[C@@H](C(=O)N1CCC[C@H]1c1ncc(-c2ccc(C#Cc3ccc(-c4cnc([C@@H]5CCCN5C(=O)[C@H](NC(=O)N5CCC(C)(O)CC5)c5ccccc5)[nH]4)cc3)cc2)[nH]1)c1ccccc1 [Compound 273], the EC50 is reported as < 1 nM. For COC(=O)N[C@@H](C(=O)N1CCC[C@H]1c1ncc(-c2ccc(C#Cc3ccc(-c4cnc([C@@H]5CCCN5C(=O)[C@H](NC(=O)[C@H]5CCCN5C)c5ccccc5)[nH]4)cc3)cc2)[nH]1)c1ccccc1 [Compound 204], the EC50 was < 1 nM. In the case of O=C([C@@H](c1ccccc1)N1CCCC1)N1CCC[C@H]1c1ncc(-c2ccc(C#Cc3ccc(-c4cnc([C@@H]5CCCN5C(=O)[C@@H](c5ccccc5)N5CCCC5)[nH]4)cc3)cc2)[nH]1 [Compound 194], the EC50 is reported as < 1 nM. For COC[C@H](NC(=O)OC)C(=O)N1CCC[C@H]1c1ncc(-c2ccc(C#Cc3ccc(-c4cnc([C@@H]5CCCN5C(=O)[C@H](COC)NC(=O)OC)[nH]4)cc3)cc2)[nH]1 [Compound 976], the EC50 was < 1 nM. With COC(=O)N[C@@H](C(=O)N1CCC[C@H]1c1ncc(-c2ccc(C#Cc3ccc(-c4nnc([C@@H]5CCCN5C(=O)[C@H](NC(=O)OC)c5ccccc5)[nH]4)cc3)cc2)[nH]1)c1ccccc1 [Compound 247] the EC50 was < 1 nM. COC(=O)N[C@H](C(=O)N1CCC[C@H]1c1ncc(-c2ccc(C#Cc3ccc(-c4cnc([C@@H]5CCCN5C(=O)[C@@H](NC(=O)OC)C5CCOCC5)[nH]4)c(F)c3)cc2)[nH]1)C1CCOCC1 [Compound 1012] was tested, and the EC50 was < 1 nM. COC(=O)N[C@H](C(=O)N1CCC[C@H]1c1ncc(-c2ccc(C#Cc3ccc(-c4cnc([C@@H]5CCCN5C(=O)[C@@H](NC(=O)OC)C(C)C)[nH]4)cc3)cc2)[nH]1)C(C)C [Compound 266] was tested, and the EC50 was < 1 nM.

Reference: patent publication US8865756B2, “Inhibitors of HCV NS5A” (Presidio Pharmaceuticals, Inc., priority 2008, dated 2014)
